US9951065B2 (Gilead Sciences, Inc., priority 2015, dated 2018)

target: T1, IDO1 (Homo sapiens, UniProt P14902); experiment: Cell-based (HeLa) assay for measurement of IDO1 inhibition (kynurenine levels in supernatant after IFNγ induction); conditions: HeLa cells, IFNγ-induced IDO1, kynurenine in supernatant, 48 hour incubation; geometric mean of a minimum of four determinations
T1 construct: HeLa cells were treated with a test compound in the presence of IFNγ, which induces IDO1 expression; host or cells: H1-HeLa cells, IDO1 induced with IFNγ
T1 sequence (P14902 whole entry): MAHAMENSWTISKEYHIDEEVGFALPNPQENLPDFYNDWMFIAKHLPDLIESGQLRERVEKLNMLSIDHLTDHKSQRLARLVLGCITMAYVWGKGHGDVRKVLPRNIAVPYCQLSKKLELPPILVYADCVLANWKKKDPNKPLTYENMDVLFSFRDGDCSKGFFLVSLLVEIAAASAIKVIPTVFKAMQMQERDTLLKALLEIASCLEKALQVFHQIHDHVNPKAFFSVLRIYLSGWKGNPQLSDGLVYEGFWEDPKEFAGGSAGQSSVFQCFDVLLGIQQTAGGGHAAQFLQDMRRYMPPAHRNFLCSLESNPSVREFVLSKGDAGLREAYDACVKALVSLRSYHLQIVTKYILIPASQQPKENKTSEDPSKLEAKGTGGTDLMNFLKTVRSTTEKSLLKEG
How it was run: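 IDO1 activity is read as kynurenine released into the medium, detected with Ehrlich's reagent (p-dimethylaminobenzaldehyde) at 480 nm after TCA treatment. HeLa cells were exposed 48 h to compounds in 0.5% DMSO alongside IFNγ induction. Values normalized to no-IFNγ and IFNγ controls; four-parameter EC50 given as geometric mean of ≥4 determinations.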

| EC50 | Compound |
| --- | --- |
| 1810 nM | CN1CC(N)[C@H](Nc2nc3c(F)c(F)cc(/C(=N/O)Nc4ccc(F)c(Cl)c4)c3[nH]2)C1 (stereo partly drawn) [Example 435, 2-(((3R)-4-amino-1-methylpyrrolidin-3-yl)amino)-N-(3-chloro-4-fluorophenyl)-4,5-difluoro-N′-hydroxy-1H-benzo[d]imidazole-7-carboximidamide] |
| 2020 nM | CN(C)C(CNc1nc2c(F)c(F)cc(/C(=N/O)Nc3ccc(F)c(Cl)c3)c2[nH]1)c1ccccc1 (centres unmarked) [Example 436, N-(3-chloro-4-fluorophenyl)-2-((2-(dimethylamino)-2-phenylethyl)amino)-4,5-difluoro-N′-hydroxy-1H-benzo[d]imidazole-7-carboximidamide] |
| 998 nM | CN(C)[C@@H]1CCCC[C@H]1Nc1nc2c(F)c(F)cc(/C(=N/O)Nc3ccc(F)c(Cl)c3)c2[nH]1 [Example 437, N-(3-chloro-4-fluorophenyl)-2-(((1R,2R)-2-(dimethylamino)cyclohexyl)amino)-4,5-difluoro-N′-hydroxy-1H-benzo[d]imidazole-7-carboximidamide] |
| 838 nM | CN(C)C1(CNc2nc3c(F)c(F)cc(/C(=N/O)Nc4ccc(F)c(Cl)c4)c3[nH]2)CCCC1 [Example 438, N-(3-chloro-4-fluorophenyl)-2-(((1-(dimethylamino)cyclopentyl)methyl)amino)-4,5-difluoro-N′-hydroxy-1H-benzo[d]imidazole-7-carboximidamide] |
| 389 nM | CN1CCCC(Nc2nc3c(F)c(F)cc(/C(=N/O)Nc4ccc(F)c(Cl)c4)c3[nH]2)C1 (centres unmarked) [Example 443, N-(3-chloro-4-fluorophenyl)-4,5-difluoro-N′-hydroxy-2-((1-methylpiperidin-3-yl)amino)-1H-benzo[d]imidazole-7-carboximidamide] |
| 3140 nM | CN(C)[C@H]1CCCC[C@@H]1Nc1nc2c(F)c(F)cc(/C(=N/O)Nc3ccc(F)c(Cl)c3)c2[nH]1 [Example 444, N-(3-chloro-4-fluorophenyl)-2-(((1S,2S)-2-(dimethylamino)cyclohexyl)amino)-4,5-difluoro-N′-hydroxy-1H-benzo[d]imidazole-7-carboximidamide] |
| 1950 nM | O/N=C(\Nc1ccc(F)c(Cl)c1)c1cc(F)c(F)c2nc(N[C@H]3CCCNC3)[nH]c12 [Example 445, (S)—N-(3-chloro-4-fluorophenyl)-4,5-difluoro-N′-hydroxy-2-(piperidin-3-ylamino)-1H-benzo[d]imidazole-7-carboximidamide] |
| 1590 nM | CN(C)C1(CNc2nc3c(F)c(F)cc(/C(=N/O)Nc4ccc(F)c(Cl)c4)c3[nH]2)CCCCC1 [Example 450, N-(3-chloro-4-fluorophenyl)-2-(((1-(dimethylamino)cyclohexyl)methyl)amino)-4,5-difluoro-N′-hydroxy-1H-benzo[d]imidazole-7-carboximidamide] |
| 205 nM | CN1CCCCC(Nc2nc3c(F)c(F)cc(/C(=N/O)Nc4ccc(F)c(Cl)c4)c3[nH]2)C1 (centres unmarked) [Example 451, N-(3-chloro-4-fluorophenyl)-4,5-difluoro-N′-hydroxy-2-((1-methylazepan-3-yl)amino)-1H-benzo[d]imidazole-7-carboximidamide] |
| 568 nM | O/N=C(\Nc1ccc(F)c(Cl)c1)c1cc(F)c(F)c2nc(NCCN3CC[C@H](O)C3)[nH]c12 [Example 452, (S)—N-(3-chloro-4-fluorophenyl)-4,5-difluoro-N′-hydroxy-2-((2-(3-hydroxypyrrolidin-1-yl)ethyl)amino)-1H-benzo[d]imidazole-7-carboximidamide] |
| 376 nM | CC(C)N1CCCC(Nc2nc3c(F)c(F)cc(C(=NO)Nc4ccc(F)c(Cl)c4)c3[nH]2)C1 (centres unmarked) [Example 455, N-(3-chloro-4-fluorophenyl)-4,5-difluoro-N′-hydroxy-2-((1-isopropylpiperidin-3-yl)amino)-1H-benzo[d]imidazole-7-carboximidamide] |
| 1430 nM | O/N=C(\Nc1ccc(F)c(Cl)c1)c1cc(F)c(F)c2nc(N[C@H]3CCCCNC3)[nH]c12 [Example 462, (S)-2-(azepan-3-ylamino)-N-(3-chloro-4-fluorophenyl)-4,5-difluoro-N′-hydroxy-1H-benzo[d]imidazole-7-carboximidamide] |

More lines, now with the values behind:

| Compound | EC50 |
| --- | --- |
| O/N=C(\Nc1ccc(F)c(Cl)c1)c1cc(F)c(F)c2nc(NCCCN3CCCC3)[nH]c12 [Example 434, N-(3-chloro-4-fluorophenyl)-4,5-difluoro-N′-hydroxy-2-((3-(pyrrolidin-1-yl)propyl)amino)-1H-benzo[d]imidazole-7-carboximidamide] | 1240 nM |
| CN(C)[C@H]1CCC[C@H](Nc2nc3c(F)c(F)cc(/C(=N/O)Nc4ccc(F)c(Cl)c4)c3[nH]2)C1 [Example 439, N-(3-chloro-4-fluorophenyl)-2-(((1S,3S)-3-(dimethylamino)cyclohexyl)amino)-4,5-difluoro-N′-hydroxy-1H-benzo[d]imidazole-7-carboximidamide] | 6800 nM |
| CN(C)[C@@H]1CCC[C@H](Nc2nc3c(F)c(F)cc(/C(=N/O)Nc4ccc(F)c(Cl)c4)c3[nH]2)C1 [Example 440, N-(3-chloro-4-fluorophenyl)-2-(((1S,3R)-3-(dimethylamino)cyclohexyl)amino)-4,5-difluoro-N′-hydroxy-1H-benzo[d]imidazole-7-carboximidamide] | 6660 nM |
| CN(C)C1(CNc2nc3c(F)c(F)cc(/C(=N/O)Nc4ccc(F)c(Cl)c4)c3[nH]2)CCC1 [Example 441, N-(3-chloro-4-fluorophenyl)-2-(((1-(dimethylamino)cyclobutyl)methyl)amino)-4,5-difluoro-N′-hydroxy-1H-benzo[d]imidazole-7-carboximidamide] | > 10000 nM |
| CN1CCC(Nc2nc3c(F)c(F)cc(/C(=N/O)Nc4ccc(F)c(Cl)c4)c3[nH]2)CC1 [Example 442, N-(3-chloro-4-fluorophenyl)-4,5-difluoro-N′-hydroxy-2-((1-methylpiperidin-4-yl)amino)-1H-benzo[d]imidazole-7-carboximidamide] | 2880 nM |
| O/N=C(\Nc1ccc(F)c(Cl)c1)c1cc(F)c(F)c2nc(N[C@@H]3CCCNC3)[nH]c12 [Example 446, (R)—N-(3-chloro-4-fluorophenyl)-4,5-difluoro-N′-hydroxy-2-(piperidin-3-ylamino)-1H-benzo[d]imidazole-7-carboximidamide] | 1490 nM |
| CN1CC[C@H](Nc2nc3c(F)c(F)cc(/C(=N/O)Nc4ccc(F)c(Cl)c4)c3[nH]2)C1 [Example 447, (S)—N-(3-chloro-4-fluorophenyl)-4,5-difluoro-N′-hydroxy-2-((1-methylpyrrolidin-3-yl)amino)-1H-benzo[d]imidazole-7-carboximidamide] | 325 nM |
| CN(C)CC(O)CNc1nc2c(F)c(F)cc(/C(=N/O)Nc3ccc(F)c(Cl)c3)c2[nH]1 (centres unmarked) [Example 448, N-(3-chloro-4-fluorophenyl)-2-((3-(dimethylamino)-2-hydroxypropyl)amino)-4,5-difluoro-N′-hydroxy-1H-benzo[d]imidazole-7-carboximidamide] | 1120 nM |
| CN1CCN(CCNc2nc3c(F)c(F)cc(/C(=N/O)Nc4ccc(F)c(Cl)c4)c3[nH]2)CC1=O [Example 449, N-(3-chloro-4-fluorophenyl)-4,5-difluoro-N′-hydroxy-2-((2-(4-methyl-3-oxopiperazin-1-yl)ethyl)amino)-1H-benzo[d]imidazole-7-carboximidamide] | 6250 nM |
| COCCN1CCCC(Nc2nc3c(F)c(F)cc(/C(=N/O)Nc4ccc(F)c(Cl)c4)c3[nH]2)C1 (centres unmarked) [Example 453, N-(3-chloro-4-fluorophenyl)-4,5-difluoro-N′-hydroxy-2-((1-(2-methoxyethyl)piperidin-3-yl)amino)-1H-benzo[d]imidazole-7-carboximidamide] | 651 nM |
| COCCN1CCC(Nc2nc3c(F)c(F)cc(/C(=N/O)Nc4ccc(F)c(Cl)c4)c3[nH]2)C1 (centres unmarked) [Example 454, N-(3-chloro-4-fluorophenyl)-4,5-difluoro-N′-hydroxy-2-((1-(2-methoxyethyl)pyrrolidin-3-yl)amino)-1H-benzo[d]imidazole-7-carboximidamide] | 247 nM |
| COC1CN(CCNc2nc3c(F)c(F)cc(/C(=N/O)Nc4ccc(F)c(Cl)c4)c3[nH]2)C1 [Example 456, N-(3-chloro-4-fluorophenyl)-4,5-difluoro-N′-hydroxy-2-((2-(3-methoxyazetidin-1-yl)ethyl)amino)-1H-benzo[d]imidazole-7-carboximidamide] | 274 nM |
| CN1CC[C@@H](Nc2nc3c(F)c(F)cc(/C(=N/O)Nc4ccc(F)c(Cl)c4)c3[nH]2)C1 [Example 457, (R)—N-(3-chloro-4-fluorophenyl)-4,5-difluoro-N′-hydroxy-2-((1-methylpyrrolidin-3-yl)amino)-1H-benzo[d]imidazole-7-carboximidamide] | 271 nM |
| CO[C@@H]1CN(C)C[C@H]1Nc1nc2c(F)c(F)cc(/C(=N/O)Nc3ccc(F)c(Cl)c3)c2[nH]1 [Example 458, N-(3-chloro-4-fluorophenyl)-4,5-difluoro-N′-hydroxy-2-(((3R,4R)-4-methoxy-1-methylpyrrolidin-3-yl)amino)-1H-benzo[d]imidazole-7-carboximidamide] | 261 nM |
| CN1CCC[C@H](Nc2nc3c(F)c(F)cc(/C(=N/O)Nc4cccc(Cl)c4)c3[nH]2)C1 [Example 459, (S)—N-(3-chlorophenyl)-4,5-difluoro-N′-hydroxy-2-((1-methylpiperidin-3-yl)amino)-1H-benzo[d]imidazole-7-carboximidamide] | 337 nM |
| CN1CCC[C@@H](Nc2nc3c(F)c(F)cc(/C(=N/O)Nc4cccc(Cl)c4)c3[nH]2)C1 [Example 460, (R)—N-(3-chlorophenyl)-4,5-difluoro-N′-hydroxy-2-((1-methylpiperidin-3-yl)amino)-1H-benzo[d]imidazole-7-carboximidamide] | 193 nM |
| CN(C)C1CCCC1Nc1nc2c(F)c(F)cc(/C(=N/O)Nc3ccc(F)c(Cl)c3)c2[nH]1 (centres unmarked) [Example 461, N-(3-chloro-4-fluorophenyl)-2-((2-(dimethylamino)cyclopentyl)amino)-4,5-difluoro-N′-hydroxy-1H-benzo[d]imidazole-7-carboximidamide] | 472 nM |
